Paper PMC7484352 (Archives of biochemistry and biophysics, 2020)

Target: T1, bDAD (DAD V1M) (Burkholderia sp. AZ11, UniProt F7J5X4, V1M)
T1 sequence (F7J5X4 1-177): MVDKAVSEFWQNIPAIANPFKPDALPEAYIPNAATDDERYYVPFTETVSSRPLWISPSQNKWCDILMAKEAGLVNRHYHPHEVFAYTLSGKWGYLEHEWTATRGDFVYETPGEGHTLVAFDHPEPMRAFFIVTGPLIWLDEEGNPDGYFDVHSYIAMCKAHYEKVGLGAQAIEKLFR
Experiment: UV absorbance at […] nm, DHA consumption
Assay type: biochemical

SMILES: O=C(O)c1ccc(O)cc1 [4HB, 4-hydroxybenzoic acid]
- Ki: 1100 ± 400 µM
